The source of these data is US10450306B2, “Isoxazole analogs as FXR agonists and methods of use thereof” (Enanta Pharmaceuticals, Inc., priority 2016, dated 2019).

Structures are written as SMILES.

The target of this experiment is T1, human FXR (NR1H4) (Homo sapiens, UniProt Q96RI1).
T1 construct: host or cells: CHO (Chinese hamster ovary) reporter cells
T1 sequence (Q96RI1 1-486): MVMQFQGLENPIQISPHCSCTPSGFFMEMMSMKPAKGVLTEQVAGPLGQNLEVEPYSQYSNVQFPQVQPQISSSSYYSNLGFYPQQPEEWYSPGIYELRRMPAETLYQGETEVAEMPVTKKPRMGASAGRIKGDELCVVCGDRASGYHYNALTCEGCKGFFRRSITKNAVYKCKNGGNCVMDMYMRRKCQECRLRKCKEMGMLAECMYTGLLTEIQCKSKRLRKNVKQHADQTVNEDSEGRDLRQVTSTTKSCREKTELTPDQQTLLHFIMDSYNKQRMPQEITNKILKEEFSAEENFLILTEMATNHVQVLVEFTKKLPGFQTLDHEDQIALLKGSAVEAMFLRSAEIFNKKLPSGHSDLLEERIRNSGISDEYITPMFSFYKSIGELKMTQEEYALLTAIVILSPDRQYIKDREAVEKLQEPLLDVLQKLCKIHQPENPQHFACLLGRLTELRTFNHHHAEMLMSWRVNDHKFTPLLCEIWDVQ
In words: Human FXR (NR1H4) Assay: Gal4 promoter driven luciferase reporter transactivation in CHO cells (Indigo Bioscience kit IB00601). For Efficacy (%): efficacy normalized to CDCA set as 100%. The experiment is classed as cell-based. Conditions: for Emax: CHO, read-out: Efficacy (%); for EC50: Human FXR (NR1H4) reporter assay, potency ranges. The essentials:
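Luminescence read-out after 22 h exposure quantified FXR transactivation; compounds were tested at several doses, 0.2% DMSO, in CHO cells engineered with human NR1H4 and a luciferase gene linked to an FXR-responsive promoter.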
Background: In a reporter assay the amount or activity of a reporter protein is the signal.

Consider `O=C(O)c1ccc2nc(N3C4CCC3CC(NCc3c(-c5ccccc5C(F)(F)F)noc3C3CC3)C4)sc2c1` (stereo not drawn) [Example 1413], for which the Emax worked out at 90.7% and the EC50 (as a rule, the concentration at which the effect is half-maximal) was 1 to 100 nM.

With `O=C(NS(=O)(=O)C1CC1)c1cc(C2CC2)c2nc(N3C4CCC3CC(NCc3c(-c5ccccc5C(F)(F)F)noc3C3CC3)C4)sc2c1` (stereo not drawn) [Example 1414], the Emax is 89.5% and the EC50 was less than 1 nM.

`CC(C)Oc1cc(C(=O)NS(=O)(=O)C2CC2)cc2sc(N3C4CCC3CC(NCc3c(-c5ccccc5C(F)(F)F)noc3C3CC3)C4)nc12` (stereo not drawn) [Example 1415]: the Emax is 106% and the EC50 was 1 to 100 nM.

Consider `O=C(NS(=O)(=O)C1CC1)c1ccc2nc(N3C4CCC3CC(NCc3c(-c5ccccc5C(F)(F)F)noc3C3CC3)C4)sc2c1` (stereo not drawn) [Example 1416], for which the Emax stood at 87.5% and the EC50 is 1 to 100 nM.

As for `O=C(NS(=O)(=O)C1CC1)c1ccc2nc(N3C4CCC3CC(NCc3c(-c5c(F)cccc5F)noc3C3CC3)C4)sc2c1` (stereo not drawn) [Example 1417], the Emax came to 69% and the EC50 was 1 to 100 nM.

Regarding `O=C(O)c1ccc2nc(N3C4CCC3CC(NCc3c(-c5ccccc5C(F)(F)F)noc3C3CC3)C4)oc2c1` (stereo not drawn) [Example 1418], the Emax came to 102% and the EC50 was in the range of 1 to 100 nM.

Regarding `O=C(O)c1cc(C2CC2)c2nc(N3C4CCC3CC(NCc3c(-c5c(F)cccc5F)noc3C3CC3)C4)sc2c1` (stereo not drawn) [Example 1419], the Emax amounted to 107% and the EC50 was in the range of 1 to 100 nM.

Regarding `CC1(S(=O)(=O)NC(=O)c2ccc3nc(N4C5CCC4CC(NCc4c(-c6ccccc6C(F)(F)F)noc4C4CC4)C5)sc3c2)CC1` (stereo not drawn) [Example 1420], the Emax is 91% and the EC50 fell in the range of 1 to 100 nM.

Turning to `CC1(S(=O)(=O)NC(=O)c2ccc3nc(N4C5CCC4CC(NCc4c(-c6c(F)cccc6F)noc4C4CC4)C5)sc3c2)CC1` (stereo not drawn) [Example 1421], the Emax amounted to 101% and the EC50 lay in the range of 1 to 100 nM.

Consider `CC1(S(=O)(=O)NC(=O)c2ccc3nc(N4C5CCC4CC(NCc4c(-c6ccccc6C6CC6)noc4C4CC4)C5)sc3c2)CC1` (stereo not drawn) [Example 1422], for which the Emax was 94% and the 50% effective concentration (EC50) lay in the range of 1 to 100 nM.

Regarding `COC(=O)c1cc(OC(C)C)c2nc(N3C4CCC3CC(NCc3c(-c5c(F)cccc5F)noc3C3CC3)C4)sc2c1` (stereo not drawn) [Example 1423], the Emax is 78% and the EC50 is more than 1000 nM.

Turning to `O=C(NS(=O)(=O)C1CC1)c1ccc2nc(N3C4CCC3CC(NCc3c(-c5ccccc5C(F)(F)F)noc3C3CC3)C4)oc2c1` (stereo not drawn) [Example 1424], the Emax worked out at 148% and the EC50 fell in the range of 1 to 100 nM.

Regarding `CC1(S(=O)(=O)NC(=O)c2ccc3nc(N4C5CCC4CC(NCc4c(-c6ccccc6C(F)(F)F)noc4C4CC4)C5)oc3c2)CC1` (stereo not drawn) [Example 1425], the Emax came out at 74% and the EC50 was in the range of 100 to 1000 nM.

With `CC(C)Oc1cc(C(=O)O)cc2sc(N3C4CCC3CC(NCc3c(-c5c(F)cccc5F)noc3C3CC3)C4)nc12` (stereo not drawn) [Example 1426], the Emax amounted to 73.2% and the EC50 lay within 100 to 1000 nM.

As to `CC(C)Oc1cc(C(=O)NS(=O)(=O)C2(C)CC2)cc2sc(N3C4CCC3CC(NCc3c(-c5c(F)cccc5F)noc3C3CC3)C4)nc12` (stereo not drawn) [Example 1428], the Emax is 86% and the EC50 lay in the range of 1 to 100 nM.
